Reference: patent publication US20150065440A1 (Progen Pharmaceuticals Limited, priority 2007, published 2015)
Where a name gives a salt, the structure may show the parent alone. Read-outs that look alike come from different tables or passages of the source.

How the values were obtained:
[1] = system: normal pooled human plasma; assay: Anticoagulant activity, Heptest; conditions: 0.1 mg/mL in normal pooled human plasma
[2] = target: T1, recombinant human heparanase (Homo sapiens, UniProt Q9Y251); assay: Heparanase inhibition assay (fondaparinux cleavage, WST-1); conditions: read-out: Ki Heparanase; IC50 converted into Ki; fondaparinux 100 μM, pH 5.0
T1 sequence (Q9Y251 158-543 limits assumed): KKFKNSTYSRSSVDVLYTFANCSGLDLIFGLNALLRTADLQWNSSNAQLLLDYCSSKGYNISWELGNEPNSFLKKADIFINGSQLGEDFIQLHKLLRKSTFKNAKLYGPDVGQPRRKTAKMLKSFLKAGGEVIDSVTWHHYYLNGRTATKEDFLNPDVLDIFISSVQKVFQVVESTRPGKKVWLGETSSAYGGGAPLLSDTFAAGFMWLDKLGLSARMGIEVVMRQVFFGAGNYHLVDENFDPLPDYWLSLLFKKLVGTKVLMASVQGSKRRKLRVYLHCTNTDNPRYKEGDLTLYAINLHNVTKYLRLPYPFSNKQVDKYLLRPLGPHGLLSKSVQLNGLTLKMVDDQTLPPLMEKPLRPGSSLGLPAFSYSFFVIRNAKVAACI
T1 sequence (Q9Y251 36-109 limits assumed): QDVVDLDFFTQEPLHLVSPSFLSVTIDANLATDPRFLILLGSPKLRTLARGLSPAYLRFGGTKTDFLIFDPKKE
Experimental: In the presence of an inhibitor the catalytic activity of heparanase is reduced, and the amount of disaccharide produced and the optical density of the solution are both decreased. The percent inhibition and IC50 of the inhibitor are determined from measurement of the optical density (OD) over a range of inhibitor concentrations.
Assays were carried out in 40 mM sodium acetate buffer, pH 5.0, as follows. […] A blue colour was developed by incubation of the plates at 60° C. for 60 min. […] The IC50 value for each compound was evaluated and converted into a Ki (inhibition constant) using the expression

[3] = system: pooled normal human plasma; assay: Anticoagulant activity, APTT; conditions: 0.1 mg/mL in normal pooled human plasma
Experimental: APTT measurements were performed on a STAGO STA-Compact Coagulation Analyser using standard protocols according to the manufacturer's instructions. Unfractionated heparin (UFH) was used as a control.

FGF-2 = FGF-2 (Homo sapiens, UniProt P09038); assay: Growth factor binding assay (SPR solution affinity), FGF-2; conditions: SPR, HBS-EP buffer containing 0.3 M NaCl, 25° C.; read-out: Kd FGF-2
FGF-2, sequence (P09038 143-288, species assumed): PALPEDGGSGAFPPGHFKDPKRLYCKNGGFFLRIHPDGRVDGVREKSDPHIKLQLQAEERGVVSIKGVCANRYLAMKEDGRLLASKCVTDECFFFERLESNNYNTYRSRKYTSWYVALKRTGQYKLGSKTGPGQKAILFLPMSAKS
Experimental: (§1) Binding affinities of compounds for the growth factors FGF-1, FGF-2 and VEGF were measured using a surface plasmon resonance (SPR) based solution affinity assay.^9 Heparin-coated sensorchips used for this assay were prepared via immobilisation of biotinylated BSA-heparin on a streptavidin-coated sensorchip, or via aldehyde coupling using either adipic acid dihydrazide or 1,4-diaminobutane.^9 For each Kd measurement, solutions were prepared containing a fixed concentration of protein and varying concentrations of the ligand in buffer. Ligands binding to FGF-1 and VEGF were measured in HBS-EP buffer (10 mM HEPES, pH 7.4, 150 mM NaCl, 3.0 mM EDTA and 0.005% (v/v) polysorbate 20), while binding to FGF-2 was measured in HBS-EP buffer containing 0.3 M NaCl. Prior to injection, samples were maintained at 4° C. to maximise protein stability. For each assay mixture, 50-200 μL of solution was injected at 5-40 μL/min and the relative binding response measured. All surface binding experiments were performed at 25° C. The surface was regenerated by injection of 40 μL of 4M NaCl at 40 μL/min, followed by injection of 40 μL of buffer at 40 μL/min.
(§2) Sensorgram data were analysed using the BIAevaluation software (BIAcore) and Kd values determined as previously described.^9 Where Kd values were measured in duplicate, the values represent the average of the duplicate measurements.

VEGF = target: T2, VEGF (Homo sapiens, UniProt P15692); assay: Growth factor binding assay (SPR solution affinity), VEGF; conditions: HBS-EP buffer, 25° C.
T2 sequence (P15692 207-395): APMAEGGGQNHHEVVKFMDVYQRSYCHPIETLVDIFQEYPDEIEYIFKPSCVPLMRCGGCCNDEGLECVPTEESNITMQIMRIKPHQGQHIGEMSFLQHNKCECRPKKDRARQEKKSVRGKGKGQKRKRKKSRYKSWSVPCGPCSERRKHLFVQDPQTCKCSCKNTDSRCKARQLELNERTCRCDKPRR
Experimental: as §1, §2

FGF-1 = FGF-1 (Homo sapiens, UniProt P05230); assay: Growth factor binding assay (SPR solution affinity), FGF-1
FGF-1, sequence (P05230 whole entry, species assumed): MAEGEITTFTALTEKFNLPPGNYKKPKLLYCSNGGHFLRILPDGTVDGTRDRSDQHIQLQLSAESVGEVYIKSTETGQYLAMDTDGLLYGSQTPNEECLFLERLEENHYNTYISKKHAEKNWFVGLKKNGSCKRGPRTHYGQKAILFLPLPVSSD
Experimental: as §1, §2

[4] = system: HUVEC proliferation induced by FGF-2; assay: Growth factor induced endothelial cell proliferation assay, FGF-2; type: cell-based, human; conditions: Homo sapiens, HUVEC, 72 h; read-out: FGF-2 (IC50) inhibition of HUVEC proliferation
Source text: (§3) HUVEC cells were maintained and subcultured according to standard cell culture protocols essentially as described by Lonza. Briefly, cells were maintained in Lonza endothelial growth media (EGM) with recommended supplements and growth factors (VEGF, FGF2, EFG, IGF, hydrocortisone, fetal bovine serum (FBS), ascorbic acid, heparin and gentamicin). Cells were subcultured when they reached 70-80% confluence by trypsinisation and reseeding in fresh growth medium in new culture vessels at 2500 to 5000 cells/cm^2 of vessel surface area. Cell counts were performed using a haemocytometer and viable cells were visualized with trypan blue.
(§4) Medium for the proliferation studies was prepared using EGM with 2% FBS and gentamicin only. In a later study, complete EGM was used for the VEGF groups in an attempt to enhance the proliferative index of VEGF-stimulated groups. For the tube formation assay, complete medium was used with only heparin omitted. Compounds under investigation were weighed out from powder stocks and diluted in PBS to 10 mM stock solutions and stored at −80° C. For experiments, compounds were subsequently diluted in EBM-2 medium (supplemented with 2% FBS and gentamicin) to various working concentration as required.
(§5) In the first of a series of experiments, the assay was further optimized by examining the cell density and growth factor concentration required to induce maximal proliferation by growth factors. Briefly, 100 μL of cells was added to each well at concentrations between 1-3×10^3 per well. Growth factors and test compounds were then added in 50 μL volumes at specified concentrations to obtain a final volume of 200 μL. Following incubation for 70 h, 20 μL of the CellTitre 96® Aqueous One Solution Cell Proliferation Assay (Promega) was added for 2 h prior to reading the absorbance at 490 nm to obtain OD values.

HSV-2 = assay: Viral plaque number-reduction assay, HSV-2; conditions: Human alphaherpesvirus 2, read-out: HSV-2 IC50
Experimental: (§6) African green monkey kidney (GMK AH1) cells^46 were cultured in Eagle's minimum essential medium (EMEM) supplemented with 2% calf serum, 0.05% Primaton RL substance (Kraft Inc., Norwich, USA) and antibiotics. Human epidermoid carcinoma (HEp-2) cells were cultured in Dulbecco's modified EMEM (DMEM) supplemented with 10% fetal calf serum and antibiotics. […] The RSV strain A-2^50 was used. The RSV stock was prepared as described by Hallak et al.^51 and stored at −70° C. in the presence of 40% sucrose^52.
(§7) The viral infectivity (the plaque number-reduction) assay and the plaque size-reduction assay were carried out as described previously^17. […] Subsequently, the cells were washed with 2 mL of EMEM and overlaid with 1% methylcellulose solution in EMEM. The plaques were visualized by staining with crystal violet solution after 2 (HSV-2) or 3 (HSV-1) days of incubation at 37° C. […] When the compounds were screened for anti-HSV or anti-RSV activity, mixtures of 200 PFU of the virus and the test compound (100 μg/mL) in serum-free EMEM were incubated for 10 min at room temperature before addition to cells and during the entire period of viral infection of cells and the development of viral plaques. In the plaque size-reduction assay, the compounds were added to cells (in methylcellulose overlay medium) after 2 h period of virus infection of cells in the absence of the inhibitor. After 2-3 days of incubation at 37° C., the viral plaques were visualized by staining the cells with 1% solution of crystal violet. For each compound tested, the images of twenty neighboring plaques were captured using a Leica DC300 digital camera attached to a Leitz-Wetzlar Diavert microscope. The area of each plaque was determined using IM500 image software (Leica). Similar protocols were used for RSV, except that the assays were performed in HEp-2 cells and DMEM supplemented with 2% heat-inactivated fetal calf serum was used instead of EMEM.

RSV = assay: Viral plaque number-reduction assay, RSV; conditions: human respiratory syncytial virus, read-out: RSV IC50
Experimental: as §6, §7

[5] = system: HUVEC proliferation induced by FGF-1; assay: Growth factor induced endothelial cell proliferation assay, FGF-1; type: cell-based, human; conditions: Homo sapiens, HUVEC, 72 h; read-out: FGF-1 (IC50) inhibition of HUVEC proliferation
Source text: as §3, §4, §5

[6] = system: HUVEC proliferation induced by VEGF; assay: Growth factor induced endothelial cell proliferation assay, VEGF; type: cell-based, human; conditions: Homo sapiens, HUVEC, 72 h; read-out: VEGF (IC50) inhibition of HUVEC proliferation
Source text: as §3, §4, §5

[7] = SPR, HBS-EP buffer, 25° C., read-out: Kd FGF-1

Compound | Heptest [1] [s] | Ki [2] [nM] | APTT [3] [s] | Kd (FGF-2) [nM] | Kd (VEGF) [nM] | Kd (FGF-1; [7]) [nM] | IC50 [4] [nM] | IC50 (HSV-2) [µg/mL] | IC50 (RSV) [µg/mL] | IC50 [5] [nM] | IC50 [6] [nM] | Kd (FGF-1) [nM]
CC(C)CCCC(C)C1CCC2C3CCC4CC(OCc5cn(C6OC(COS(=O)(=O)O)C(OC7OC(COS(=O)(=O)O)C(OC8OC(COS(=O)(=O)O)C(OS(=O)(=O)O)C(OS(=O)(=O)O)C8OS(=O)(=O)O)C(OS(=O)(=O)O)C7OS(=O)(=O)O)C(OS(=O)(=O)O)C6OS(=O)(=O)O)nn5)CCC4(C)C3CCC12C [Compound 76, 4-(Cholestan-3β-yl-oxymethyl)[1,2,3]triazol-1-yl 2,3,4,6-tetra-O-sodium sulfonato-α-D-glucopyranosyl-(1→4)-2,3,6-tri-O-sodium sulfonato-α-D-glucopyranosyl-(1→4)-1-deoxy-2,3,6-tri-O-sodium sulfonato-β-D-glucopyranoside] | 30.2 | 16 ± 4 | 61.2 | 610 ± 60 | 790 ± 230 | 50 ± 8 |  |  |  |  |  | 
CC(=O)OC1CC2C(CCC3CC(OS(=O)(=O)O)CCC32C)C2CCC(C(C)CCC(=O)NC3OC(COS(=O)(=O)O)C(OC4OC(COS(=O)(=O)O)C(OC5OC(COS(=O)(=O)O)C(OC6OC(COS(=O)(=O)O)C(OS(=O)(=O)O)C(OS(=O)(=O)O)C6OS(=O)(=O)O)C(OS(=O)(=O)O)C5OS(=O)(=O)O)C(OS(=O)(=O)O)C4OS(=O)(=O)O)C(OS(=O)(=O)O)C3OS(=O)(=O)O)C12C [Compound 83, N-(2,3,4,6-tetra-O-sodiumsulfonato-α-D-glucopyranosyl-(1→4)-2,3,6-tri-O-sodiumsulfonato-α-D-glucopyranosyl-(1→4)-2,3,6-tri-O-sodiumsulfonato-α-D-glucopyranosyl-(1→4)-2,3,6-tri-O-sodiumsulfonato-β-D-glucopyranosyl)-4-((3R,10S,12S,13R)-3-O-sodiumsulfonato-12-O-acetyl-10,13-dimethylhexadecahydro-1H-cyclopenta[a]phenanthren-17-yl)pentanamide] | 26.8 | 20 ± 5 | 41.0 | 50 ± 4 | 7.95 ± 0.07 | 1.25 ± 0.07 |  |  |  |  |  | 
CC(C)CCCC(C)C1CCC2C3CCC4CC(OC5OC(COS(=O)(=O)O)C(OC6OC(COS(=O)(=O)O)C(OC7OC(COS(=O)(=O)O)C(OS(=O)(=O)O)C(OS(=O)(=O)O)C7OS(=O)(=O)O)C(OS(=O)(=O)O)C6OS(=O)(=O)O)C(OS(=O)(=O)O)C5OS(=O)(=O)O)CCC4(C)C3CCC12C [Compound 87, 3β-Cholestanyl 2,3,4,6-tetra-O-sodium sulfonato-α-D-glucopyranosyl-(1→4)-2,3,6-tri-O-sodium sulfonato-α-D-glucopyranosyl-(1→4)-2,3,6-tri-O-sodium sulfonato-β-D-glucopyranoside] | 29.2 | 9.1 ± 2.5 | 51.6 | 547 ± 50 | 190 ± 60 | 24.8 ± 2.3 |  |  |  |  |  | 
CC(C)CCC[C@@H](C)[C@H]1CC[C@H]2[C@@H]3CCC4CC(O[C@@H]5O[C@H](COS(=O)(=O)O)[C@@H](O[C@@H]6O[C@H](COS(=O)(=O)O)[C@@H](OS(=O)(=O)O)[C@H](OS(=O)(=O)O)[C@H]6OS(=O)(=O)O)[C@H](OS(=O)(=O)O)[C@H]5OS(=O)(=O)O)CC[C@]4(C)[C@H]3CC[C@]12C (stereo partly drawn) [Compound 107, 3′-Cholestanyl 2,3,4,6-tetra-O-sulfo-β-D-glucopyranosyl-(1→4)-2,3,6-tri-O-sulfo-β-D-glucopyranoside, heptasodium salt] | 25.3 |  | 38.8 |  | 1350 ± 70 |  | 5590 | 0.43 | 1.9 | 5750 | 5560 | 
CC(C)CCC[C@@H](C)[C@H]1CC[C@H]2[C@@H]3CCC4CC(O[C@@H]5O[C@H](COS(=O)(=O)O)[C@@H](O[C@@H]6O[C@H](COS(=O)(=O)O)[C@H](OS(=O)(=O)O)[C@H](OS(=O)(=O)O)[C@H]6OS(=O)(=O)O)[C@H](OS(=O)(=O)O)[C@H]5OS(=O)(=O)O)CC[C@]4(C)[C@H]3CC[C@]12C (stereo partly drawn) [Compound 112, 3′-Cholestanyl 2,3,4,6-tetra-O-sulfo-β-D-galactopyranosyl-(1→4)-2,3,6-tri-O-sulfo-β-D-glucopyranoside, heptasodium salt] | 25.4 |  | 38.9 | 2100 ± 300 | 430 ± 140 |  |  | 0.45 | 2.4 |  |  | 900 ± 150
